Key:
[1] = tested on: TNF-α; experiment: LPS-mediated cytokine production model, serum TNF-α; type: in vivo, CD1:ICR mice; details: for TNFα inhibition, IV versus IP administration: pre-dose time course, 10 mg/kg; for TNFα inhibition in dose-response study: IP, up to a dose of 5 mg/kg, pre-dose 1 hr
Text: Bolus injection of lethal or sub-lethal doses of lipopolysaccharide (LPS; the major component of bacterial cell walls) results in a rapid and transient rise in serum cytokine levels (e.g. TNF-α) in mammals. This animal model was originally developed to mirror certain aspects of septic shock in humans; however, there is poor correlation between efficacy in LPS-rodent models and clinical efficacy. However, this model may be an effective first-line general inflammation model and could be useful in determining the anti-inflammatory potential of test compounds. A variety of clinically approved anti-inflammatory compounds, including glucocorticoids, NSAIDS and COX-2 inhibitors are extremely effective in this model. Compounds ICI-685 and ICI-735 were tested for their ability to inhibit LPS-stimulated TNF-α and IL-1β production.
Both ICI-685 and ICI-735 were formulated in water. For the time course study, both drugs were formulated at a concentration of 1 mg/ml and dosed 10 ml/kg to produce a dose of 10 mg/kg. For the dose-response study, drug was formulated at concentrations of 0.05, 0.2 and 0.5 mg/ml and dosed at a volume of 10 ml/kg to produce doses of 0.5, 2 and 5 mg/kg, respectively. Animals were dosed IV or IP.
CD1:ICR mice were obtained from Harlan (Indianapolis, Ind.) at 6 weeks of age. Animals were housed 5 per cage, kept on a 12 hr light dark cycle and fed food and water ad libitum. Animals were tested at 8-10 weeks of age.
Lipopolysaccharide (heat killed E. coli 0127:B5; Sigma Aldrich) was prepared in distilled water at a concentration of 0.025 mg/ml. LPS was dosed at a volume of 10 ml/kg (IP) to produce a final dose of 0.25 mg/kg (approximately 7.5 μg/mouse). Drugs were dosed prior to LPS administration as indicated elsewhere herein. Blood was collected by retro-orbital eye bleed 90 minutes after LPS administration. Serum was prepared from blood and TNF-α and IL-1β levels were measured by using the OPT-EIA mouse TNF-α and IL-1β ELISA kits (BD Biosciences) as per directions of the manufacturer.
The first study was designed to determine the optimal route of administration and the optimal pre-treatment time. Two pre-dose time course studies were conducted. The first (Study 1A) was conducted with 3 pre-dose time points (2, 6 and 18 hrs). The second was conducted at 0, 1 and 2 hr predose time points. For both studies, drug was dosed IP or IV.
Using data from the first study, a second study was conducted that was designed to measure dose-response activity of each compound. Compounds were tested at doses of 0, 2.0 and 5 mg/kg using the route and pre-treatment time that produced the best activity. […]
Using data from the first study, a second study was conducted that was designed to measure dose-response activity of each compound. Compounds were tested at doses of 0.5, 2.0 and 5 mg/kg using the route and pre-treatment time that produced the best activity.

[2] = tested on: Aspergillus fumigatus-based mouse asthma model; experiment: Aspergillus fumigatus-based mouse asthma model, lung resistance; type: in vivo; details: intraperitoneally at a dose of 20 mg/ml
Procedure: Compounds of the invention were also tested for efficiacy in an asthma model.
A cohort of mice were administered intraperitoneal injections of Aspergillus fumigatus on days 0, 14, 26, 27, and 28. Lung resistance was tested on day 29 immediately following a tracheotomy/methacholine procedure. Animals receiving dexamethasone were administered dexamethasone on days 26, 27 and 28. Animals receiving a compound of the invention were administered the compound just hours before the lung resistance test. As a control, all test compounds, as well as dexamethasone, were also administered to mice in the absence of an A. fumigatus insult.

[3] = tested on: mice sensitized with collagen injections; experiment: Clinical arthritis score in mice sensitized with collagen injections; type: in vivo
Procedure: FIGS. 26-28 illustrate the effect of various compounds of the invention on the clinical arthritis score of mice treated with various compounds of the invention.
Additional testing of the effectiveness of compounds ICI-685, ICI-735 and ICI-847 at higher and lower concentrations were conducted, as illustrated in FIG. 29.

## CN(C)S(=O)(=O)c1ccc2c(c1)N(CCCN1CCN(CCN)CC1)c1ccccc1S2 [ICI-715]
[1]
  TNFα inhibition, IV versus IP administration: IV administration of ICI-715 produced slightly better inhibition than IV administration

## NCC(=O)NCCN1CCN(CCCN2c3ccccc3Sc3ccc(C(F)(F)F)cc32)CC1 [ICI-735]
[2]
  decreasing lung resistance, compared with dexamethasone: at least as effective as dexamethasone

## FC(F)(F)c1ccc2c(c1)N(CCCC1CCNCC1)c1ccccc1S2 [ICI-824]
[1]
  TNFα inhibition in dose-response study: ineffective
  TNFα inhibition, IV versus IP administration: IP administration produced slightly better inhibition than IV administration

## NCCCN1CCC(CCCN2c3ccccc3Sc3ccc(C(F)(F)F)cc32)CC1 [ICI-847]
[3]; 30 mg/kg
  clinical arthritis score, compared with dexamethasone: as effective for the length of the study as is dexamethasone
[3]; orally at 10 mg/kg daily, for about 21 days
  clinical arthritis score, compared with dexamethasone: as effective as dexamethasone
[2]
  decreasing lung resistance, compared with dexamethasone: at least as effective as dexamethasone

## NCCN1CCN(CCCCN2c3ccccc3Sc3ccc(C(F)(F)F)cc32)CC1 [ICI-953]
[1]
  TNFα inhibition in dose-response study: ineffective
  TNFα inhibition, IV versus IP administration: IP administration produced slightly better inhibition than IV administration

## NCC(=O)NCCN1CCN(CCCCN2c3ccccc3Sc3ccc(C(F)(F)F)cc32)CC1 [ICI-954]
[1]
  TNFα inhibition in dose-response study: ineffective
  TNFα inhibition, IV versus IP administration: IP administration produced slightly better inhibition than IV administration

From US7923445B2, “Methods for treatment of diseases related to activated lymphocytes” (Immune Control, Inc., priority 2006, dated 2011)
